In patent US20230233701A1 (priority 2020, published 2023):

Legend:
2D2 CD4 T cells = assay: 2D2 CD4 T-cell adoptive transfer and challenge; details: amount equimolar to the administered […]-MOG35-55 adduct
[1] = tested on: OVA protein and OB1 peptide; details: three consecutive injections, C57BL/6J

MOG35-55: amino acids 35-55 of MOG, MEVGWYRSPFSRVVHLYRNGK (SEQ ID NO: 49) (UniProt Q61885 63-83, looked up, fragment)
division of 2D2 T cells (2D2 CD4 T cells): ≤ 5%

OVA protein: free OVA (ovalbumin) protein, equimolar amounts
IgG antibody responses against OVA protein or OB1 peptide [1]: readily produced such antibodies
